Laboratory results taken from patent US11066425B1, “Oxo-substituted compound” (SUMITOMO DAINIPPON PHARMA CO., LTD., priority 2018, dated 2021).
Counter-ions that a name gives are not always drawn.

System: β-lactamase producing bacteria
Assay: Test Example 1: MIC of meropenem (MEPM) combined with test compound at fixed 4 μg/mL, broth microdilution
Type: cell-based
Conditions: relative to MEPM alone
Protocol: Test Example 1: Evaluation of Minimum Inhibitory Concentration (MIC) of MEPM Against β-Lactamase Producing Bacteria
To evaluate the β-lactamase inhibitory activity of test compounds, the effect of combination of a test compound and a β-lactam agent against β-lactamase producing bacteria was evaluated. Meropenem (MEPM) was used as a β-lactam antimicrobial agent. The minimum inhibitory concentration (MIC) of MEPM against β-lactamase producing bacteria when a test compound was added at a fixed concentration (4 μg/mL) was measured by broth microdilution method (common ratio: 2). MIC of MEPM decreasing to less than 1/32 in combination with a test compound is indicated by A, decreasing from 1/32 to 1/16 is indicated by B, decreasing from ⅛ to ¼ is indicated by C, and decreasing to ½ or others are indicated by D. “-” represents untested cases.

Compound	Decrease of MIC of MEPM in combination with a test compound, E. coli ATCC BAA-2340 (KPC)	Decrease of MIC of MEPM in combination with a test compound, K. pneumoniae ATCC BAA-2344 (KPC)	Decrease of MIC of MEPM in combination with a test compound, K. pneumoniae ATCC BAA-2524 (OXA-48)
O=C(O)c1c(OC2CN(C(=O)Cc3cccnc3)C2)ccc2c1O[B-](O)(O)CC2 [Example 14, 4,4-dihydroxy-8-({1-[(pyridin-3-yl)acetyl]azetidin-3-yl}oxy)-5-oxa-4-boranuidabicyclo[4.4.0]deca-l(6),7,9-triene-7-carboxylic acid disodium salt]	A (MIC of MEPM decreasing to less than 1/32 in combination with a test compound is indicated by A)	A (MIC of MEPM decreasing to less than 1/32 in combination with a test compound is indicated by A)	B (decreasing from 1/32 to 1/16 is indicated by B)
N[C@H](C(=O)N1CC(Oc2ccc3c(c2C(=O)O)O[B-](O)(O)CC3)C1)c1ccccc1 [Example 15, 8-({1-[(2S)-2-amino-2-phenylacetyl]azetidin-3-yl}oxy)-4,4-dihydroxy-5-oxa-4-boranuidabicyclo[4.4.0]deca-l(6),7,9-triene-7-carboxylic acid disodium salt]	A (MIC of MEPM decreasing to less than 1/32 in combination with a test compound is indicated by A)	A (MIC of MEPM decreasing to less than 1/32 in combination with a test compound is indicated by A)	B (decreasing from 1/32 to 1/16 is indicated by B)
O=C(O)c1c(OC2CN(C(=O)Cc3ccncc3)C2)ccc2c1O[B-](O)(O)CC2 [Example 16, 4,4-dihydroxy-8-({1-[(pyridin-4-yl)acetyl]azetidin-3-yl}oxy)-5-oxa-4-boranuidabicyclo[4.4.0]deca-l(6),7,9-triene-7-carboxylic acid disodium salt]	A (MIC of MEPM decreasing to less than 1/32 in combination with a test compound is indicated by A)	–	B (decreasing from 1/32 to 1/16 is indicated by B)
O=C(O)c1c(OC2CN(C(=O)Cc3ccc(O)cc3)C2)ccc2c1O[B-](O)(O)CC2 [Example 17, 4,4-dihydroxy-8-({1-[(4-hydroxyphenyl)acetyl]azetidin-3-yl}oxy)-5-oxa-4-boranuidabicyclo[4.4.0]deca-l(6),7,9-triene-7-carboxylic acid disodium salt]	A (MIC of MEPM decreasing to less than 1/32 in combination with a test compound is indicated by A)	B (decreasing from 1/32 to 1/16 is indicated by B)	B (decreasing from 1/32 to 1/16 is indicated by B)
O=C(O)c1c(OC2CN(C(=O)Cn3cncn3)C2)ccc2c1O[B-](O)(O)CC2 [Example 18, 4,4-dihydroxy-8-({1-[(1H-1,2,4-triazol-1-yl)acetyl]azetidin-3-yl}oxy)-5-oxa-4-boranuidabicyclo[4.4.0]deca-l(6),7,9-triene-7-carboxylic acid disodium salt]	A (MIC of MEPM decreasing to less than 1/32 in combination with a test compound is indicated by A)	A (MIC of MEPM decreasing to less than 1/32 in combination with a test compound is indicated by A)	B (decreasing from 1/32 to 1/16 is indicated by B)
NC(C(=O)N1CC(Oc2ccc3c(c2C(=O)O)O[B-](O)(O)CC3)C1)c1cnc[nH]1 (stereo not drawn) [Example 19, 8-({1-[amino(1H-imidazol-5-yl)acetyl]azetidin-3-yl}oxy)-4,4-dihydroxy-5-oxa-4-boranuidabicyclo[4.4.0]deca-l(6),7,9-triene-7-carboxylic acid disodium salt]	A (MIC of MEPM decreasing to less than 1/32 in combination with a test compound is indicated by A)	A (MIC of MEPM decreasing to less than 1/32 in combination with a test compound is indicated by A)	B (decreasing from 1/32 to 1/16 is indicated by B)
O=C(O)c1c(OC2CN(C(=O)Cc3ccccc3)C2)ccc2c1O[B-](O)(O)CC2 [Example 20, 4,4-dihydroxy-8-{[1-(phenylacetyl)azetidin-3-yl]oxy}-5-oxa-4-boranuidabicyclo[4.4.0]deca-l(6),7,9-triene-7-carboxylic acid disodium salt]	A (MIC of MEPM decreasing to less than 1/32 in combination with a test compound is indicated by A)	B (decreasing from 1/32 to 1/16 is indicated by B)	B (decreasing from 1/32 to 1/16 is indicated by B)
O=C(O)c1c(OC2CN(C(=O)CCc3ccccc3)C2)ccc2c1O[B-](O)(O)CC2 [Example 21, 4,4-dihydroxy-8-{[1-(3-phenylpropanoyl)azetidin-3-yl]oxy}-5-oxa-4-boranuidabicyclo[4.4.0]deca-l(6),7,9-triene-7-carboxylic acid disodium salt]	A (MIC of MEPM decreasing to less than 1/32 in combination with a test compound is indicated by A)	B (decreasing from 1/32 to 1/16 is indicated by B)	C (decreasing from ⅛ to ¼ is indicated by C)
O=C(O)c1c(OC2CN(C(=O)Cn3ccnc3)C2)ccc2c1O[B-](O)(O)CC2 [Example 22, 4,4-dihydroxy-8-({1-[(1H-imidazol-1-yl)acetyl]azetidin-3-yl}oxy)-5-oxa-4-boranuidabicyclo[4.4.0]deca-l(6),7,9-triene-7-carboxylic acid disodium salt]	A (MIC of MEPM decreasing to less than 1/32 in combination with a test compound is indicated by A)	A (MIC of MEPM decreasing to less than 1/32 in combination with a test compound is indicated by A)	B (decreasing from 1/32 to 1/16 is indicated by B)
O=C(O)c1c(OC2CN(C(=O)Cn3cnnn3)C2)ccc2c1O[B-](O)(O)CC2 [Example 23, 4,4-dihydroxy-8-({1-[(1H-tetrazol-1-yl)acetyl]azetidin-3-yl}oxy)-5-oxa-4-boranuidabicyclo[4.4.0]deca-l(6),7,9-triene-7-carboxylic acid disodium salt]	–	A (MIC of MEPM decreasing to less than 1/32 in combination with a test compound is indicated by A)	B (decreasing from 1/32 to 1/16 is indicated by B)
O=C(O)c1c(OC2CN(C(=O)Cc3nn[nH]n3)C2)ccc2c1O[B-](O)(O)CC2 [Example 24, 4,4-dihydroxy-8-({1-[(2H-tetrazol-5-yl)acetyl]azetidin-3-yl}oxy)-5-oxa-4-boranuidabicyclo[4.4.0]deca-l(6),7,9-triene-7-carboxylic acid disodium salt]	A (MIC of MEPM decreasing to less than 1/32 in combination with a test compound is indicated by A)	A (MIC of MEPM decreasing to less than 1/32 in combination with a test compound is indicated by A)	B (decreasing from 1/32 to 1/16 is indicated by B)
N[C@H](Cc1ccccc1)C(=O)N1CC(Oc2ccc3c(c2C(=O)O)O[B-](O)(O)CC3)C1 [Example 25, 4,4-dihydroxy-8-[(1-D-phenylalanylazetidin-3-yl)oxy]-5-oxa-4-boranuidabicyclo[4.4.0]deca-l(6),7,9-triene-7-carboxylic acid disodium salt]	A (MIC of MEPM decreasing to less than 1/32 in combination with a test compound is indicated by A)	A (MIC of MEPM decreasing to less than 1/32 in combination with a test compound is indicated by A)	B (decreasing from 1/32 to 1/16 is indicated by B)
N[C@H](Cc1ccc(O)cc1)C(=O)N1CC(Oc2ccc3c(c2C(=O)O)O[B-](O)(O)CC3)C1 [Example 26, 4,4-dihydroxy-8-[(1-D-tyrosylazetidin-3-yl)oxy]-5-oxa-4-boranuidabicyclo[4.4.0]deca-l(6),7,9-triene-7-carboxylic acid disodium salt]	A (MIC of MEPM decreasing to less than 1/32 in combination with a test compound is indicated by A)	A (MIC of MEPM decreasing to less than 1/32 in combination with a test compound is indicated by A)	A (MIC of MEPM decreasing to less than 1/32 in combination with a test compound is indicated by A)
N[C@H](Cc1cnc[nH]1)C(=O)N1CC(Oc2ccc3c(c2C(=O)O)O[B-](O)(O)CC3)C1 [Example 27, 8-[(1-D-histidylazetidin-3-yl)oxy]-4,4-dihydroxy-5-oxa-4-boranuidabicyclo[4.4.0]deca-l(6),7,9-triene-7-carboxylic acid disodium salt]	–	A (MIC of MEPM decreasing to less than 1/32 in combination with a test compound is indicated by A)	B (decreasing from 1/32 to 1/16 is indicated by B)
